From US20220213440A1, “DENDRITIC CELL IMMUNOTHERAPY” (BAYLOR COLLEGE OF MEDICINE, priority 2015, published 2022)

Assays:
[1] = system: AIMp1 and sCTLA-4 secretion from mouse DC; test: AIMp1 / sCTLA-4 Western blot of mouse DC culture supernatants; assay type: cell-based; settings: mouse DC (not shown), 1 μg/ml, absence of antigenic loading
Text: (§1) FIGS. 1A-F: Concurrent loading of antigenically related MHC Class I and II determinants promote TH1-polarization of mouse DC. […] This effect was abrogated by siRNA knockdown of AIMp1. Antigens were derived from the RAW264.7 cell line. Heterologous Class II antigens were derived from the 4T1 breast cancer cell line. Y-axis: fold change in IL-12p70 secretion from unloaded (UL) DC. […] Top panel: AIMp1 release following homologous loading with RAW264.7 antigenic determinants. Heterologous lysate derived from 4T1. Bottom panel: AIMp1 release following homologous loading with primary SV antigenic determinants. Heterologous lysate derived from primary prostate. […] Shown: sCTLA-4 release following homologous loading with RAW264.7 antigenic determinants. Heterologous lysate derived from 4T1. […] Data shown are indicative of typical AIMp1 knockdown of >70%. […] This effect was abrogated by treatment of homologously-loaded DC with AIMp1 siRNA. Heterologous lysate was primary prostate. Y-axis: fold change in total cell count in comparison to unloaded (UL) DC. […]
Quantitation of Western Blot Images—Western blot chemiluminescent signal was detected using a ChemiDoc XRS digital imaging system running Image Lab software Version 2.0.1 (Bio-Rad Laboratories, Hercules, Calif.). All Western blots were quantitated by densitometry of Ponceau S (Sigma-Aldrich) stained membranes. […]

[2] = system: sCTLA-4 and AIMp1 secretion from human DC; test: sCTLA-4 and AIMp1 western blots of human DC culture supernatants with TLR agonistic stimuli; assay type: cell-based; settings: 1 μg/ml, absence of antigenic loading
[3] = system: H2-DM^−/− DC; test: AIMp1 / sCTLA-4 secretion from H2-DM-/- DC loaded with class I peptide; assay type: cell-based, mouse
Text: FIGS. 3A-G: AIMp1/sCTLA-4 modulation is dependent upon binding of homologous class I and II peptide to MHC. (A) sCTLA-4 (right) and AIMp1 (left) western blots of wild type (top) and H2-DM^−/− (bottom) murine DC culture supernatants following single, homologous, or heterologous loading with SV mRNA and lysate. Representative experiment shown. (B) Densitometry quantitation of AIMp1/sCTLA-4 ratios of the data depicted in (a) over three independent experiments. Top panel: wild type DC. Bottom panel: H2-DM^−/− DC. […] (Glycine Pair: Class I=SEQ ID NO: 3, Class II=SEQ ID NO: 2; Methionine Pair: Class I=SEQ ID NO: 8, Class II=SEQ ID NO: 9) (F) Densitometric quantitation of the data presented in (e). […]
Preparation of Vaccine Materials, Loading of DC, and In vitro CoCulture—Seminal vesicle (SV) and prostate were harvested from 10 week old male mice and immediately frozen at −80° C. […] To generate mRNA, total RNA was isolated from homogenized tissue using Trizol reagent (Life Technologies, Carlsbad, Calif.) according to the manufacturer's instructions, and mRNA was isolated from total RNA using an Oligotex mRNA Maxi Kit (Qiagen, Valencia, Calif.) also according to the manufacturer's instructions. mRNA was quantitated with a Nanodrop spectrophotometer (Thermo Scientific) and integrity was verified by gel electrophoresis. […]

[4] = system: CD8^+ T-cells; test: In vitro co-culture of loaded mouse DC with splenocytes, T-cell populations; assay type: cell-based; settings: loaded H2-DM^−/− DC with wild type syngeneic splenocytes
Text: as §1, with “prostate.” for “prostate. Y-axis: fold change in total cell count in comparison to unloaded (UL) DC.”
FIGS. 3A-G: AIMp1/sCTLA-4 modulation is dependent upon binding of homologous class I and II peptide to MHC. […] (B) Densitometry quantitation of AIMp1/sCTLA-4 ratios of the data depicted in (a) over three independent experiments. […] (Glycine Pair: Class I=SEQ ID NO: 3, Class II=SEQ ID NO: 2; Methionine Pair: Class I=SEQ ID NO: 8, Class II=SEQ ID NO: 9) (F) Densitometric quantitation of the data presented in (e). […]

Row | Substance | sCTLA-4 or AIMp1 secretion with TLR agonist [1] | sCTLA-4 or AIMp1 secretion with TLR agonist [2] | AIMp1 release ([3]; SIINFEKL as control) | sCTLA-4 secretion ([3]; dose-dependent) | CD8^+CD25^+ T cells after coculture [4]
1 | flagellin | Neither poly(I:C), LPS, flagellin, nor CpG-ODN altered sCTLA-4 or AIMp1 secretion | Neither poly(I:C), LPS, flagellin, nor CpG-ODN altered sCTLA-4 or AIMp1 secretion | – | – | –
2 | polyinosine-polycytidylic acid [poly(I:C)] | Neither poly(I:C), LPS, flagellin, nor CpG-ODN altered sCTLA-4 or AIMp1 secretion | Neither poly(I:C), LPS, flagellin, nor CpG-ODN altered sCTLA-4 or AIMp1 secretion | – | – | –
3 | MRMATPLLM [H-2D^b CLIP] | – | – | Substantial AIMp1 release was observed in a dose-dependent fashion | diminution of sCTLA-4 secretion | increase in CD8^+CD25^+ T cells
